From patent publication US20090099167A1, “Organic compounds” (Novartis Institutes for Biomedical Research, priority 2004, published 2009) come the findings set out here.

Molecules are shown by their SMILES.

The IC50 is the midpoint of a concentration-inhibition curve.

Experiment [1] has as its target T1, human insulin receptor (Ins-R) (Homo sapiens, UniProt P06213).
T1 construct: encoding the amino acid region 919-1343 of the intra-cytoplasmic kinase domain of the human insulin receptor; made in house; host or cells: baculovirus (Bac-to-Bac)
Put plainly: Ins-R tyrosine kinase assay, GST-Ins-R. Conditions: Table 5; read-out: Ins-R, IC50 class. In kind it is biochemical.

Another experiment concerns the target T2, human IGF-IR (Homo sapiens, UniProt P08069).
T2 construct: expresses the amino acid region 950-1337 of the mature peptide cytoplasmic domain of the human IGF-IR; made in house; host or cells: baculovirus (Bac-to-Bac)
Put plainly: IGF-1R tyrosine kinase assay, GST-IGF-1R. It counts as biochemical. Conditions: Table 5; read-out: IGF-1R, IC50 class. The source says: The inhibition of IGF-1R and Ins-R can be determined as follows: The baculovirus donor vector pfbgx3IGFIRcd is used to generate a recombinant baculovirus that expresses the amino acid region 950-1337 of the mature peptide cytoplasmic domain of the human IGF-IR. To generate the cDNA fragment encoding the amino acid region 919-1343 of the intra-cytoplasmic kinase domain of the human insulin receptor, pC5hInsR is used. The fragments of the human IGF-IR and Ins-R are cloned, expressed and small-scale purified as a factor Xa-cleavable glutathione-S-transferase (GST)-fusion protein using the Bac-to-Bac™ system (GIBCO BRL) of recombinant baculovirus generation. Virus containing media is collected from the transfected cell culture and used for infection to increase its titer. Virus containing media obtained after two rounds of infection is used for large-scale protein expression. Cell extracts are prepared and loaded onto a glutathione-Sepharose (Pharmacia) column. After washing, the GST-tagged proteins are then eluted with a glutathione-containing buffer. Purified protein is stored at −70° C. in elution buffer. Tyrosine protein kinase assays with purified GST-IGF-1R and GST-ins-R are carried in a final volume of 30 μl containing 20 mM Tris-HCl, pH 7.6, 10 mM MgCl2, 0.01 mM Na3VO4, 1% DMSO, 1 mM DTT, 3 μg/ml poly(Glu,Tyr) 4:1 and 10 μM ATP (γ-[^33P]-ATP 0.1 μCi). The assay is performed in 96-well plates at ambient temperature for 20 min and terminated by addition of 25 μl 0.05 M EDTA pH 7.0. An aliquot of 40 μl is spotted with a multichannel dispenser on Whatman P81 membranes mounted in a Millipore Microtiter filter manifold connected to a low vacuum source. After elimination of liquid, the membrane is transferred to a sequence of 4 washing baths containing 0.5% H3PO4 and one with EtOH (shaking incubation for 10 min each), dried, mounted onto a Hewlett Packard TopCount manifold added 10 μl Microscint® and counted. Compounds of formula (I) show up to 90% inhibition of Ins-R at 10,000 nM, preferably between 60-90% inhibition. The inhibition of Tek can be determined as follows: The procedure of the expression, purification and assay these kinases has been described. Fabbro et al., Pharmacol. Ther. 82(2-3) 293-301 (1999). In brief, the glutathione S-transferase (GST) gene from the pAcG1 vector (Pharmingen) is excised with EcoRV and EcoRI and inserted into the cloning site of the Fast-Bac baculoviral vector (GIBCO) creating a 5530 bp vector with N-terminal cloning sites derived from the pAcG1 fusion vector (FBG0). The C-terminal cloning site may be any cloning site (from the Fast-Bac vector) downstream of the N-terminal cloning site used. N-terminally GST-fused (pAcG1, Pharmingen) KDR, Flt-1, Flk-1, Tek and PDGFR-β kinase domains are obtained from ProQinase, Freiburg, Germany. Tek is recloned into the FBG1 vector by EcoRI excision and ligation into EcoRI digested FBG1 (FBG1-Tek). The coding sequences for the whole cytoplasmic domain of c-Kit (aa 544-976) and c-Fms (aa 538-972) are amplified by PCR from human uterus and from human bone marrow cDNA libraries (Clontech), respectively. The amplified DNA fragments are fused to GST by cloning them into FBG1 as BamHI-EcoRI insertions, to yield FBG1-c-Kit and FBG1-c-Fms. Tek is recloned into the FBG0 transfer vector by EcoRI excision and ligation into EcoRI digested FBG0 (FBG-Tie2/Tek). FGFR-1 and c-met kinase domains are obtained by PCR from human A431 cells. N-terminal primers contain an overhanging EcoRI site, while C-terminal primers contain a XhoI site to aid cloning into the transfer vectors. After digestion of both the PCR fragments and FBG0 the cleavage products are gel-purified and ligated together to form the kinase constructs (FBG-Met, FBG-FGFR-1).

T1 sequence (P06213 958-1382 limits assumed): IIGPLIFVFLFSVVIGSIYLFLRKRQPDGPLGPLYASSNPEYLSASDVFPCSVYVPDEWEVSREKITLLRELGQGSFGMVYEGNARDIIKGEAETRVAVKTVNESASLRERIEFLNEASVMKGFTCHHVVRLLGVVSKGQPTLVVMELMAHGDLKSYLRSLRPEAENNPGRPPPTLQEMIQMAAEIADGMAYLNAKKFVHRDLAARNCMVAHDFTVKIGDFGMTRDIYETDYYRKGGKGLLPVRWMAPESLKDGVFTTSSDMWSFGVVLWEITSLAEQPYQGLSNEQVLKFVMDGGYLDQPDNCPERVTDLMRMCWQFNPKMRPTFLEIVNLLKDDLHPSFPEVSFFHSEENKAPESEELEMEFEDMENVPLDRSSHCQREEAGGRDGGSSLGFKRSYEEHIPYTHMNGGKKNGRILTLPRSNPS
T2 sequence (P08069 980-1367): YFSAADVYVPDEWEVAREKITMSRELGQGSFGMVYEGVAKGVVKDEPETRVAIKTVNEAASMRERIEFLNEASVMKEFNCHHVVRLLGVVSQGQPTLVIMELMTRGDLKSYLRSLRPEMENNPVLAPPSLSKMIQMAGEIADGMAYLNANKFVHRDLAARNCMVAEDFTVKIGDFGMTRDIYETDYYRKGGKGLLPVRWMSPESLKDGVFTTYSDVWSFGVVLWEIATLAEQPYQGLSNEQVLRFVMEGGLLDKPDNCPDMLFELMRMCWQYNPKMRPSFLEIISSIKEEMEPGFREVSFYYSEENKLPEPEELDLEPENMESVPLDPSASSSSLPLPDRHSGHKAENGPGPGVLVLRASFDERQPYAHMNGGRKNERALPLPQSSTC

Turning to `Cc1nc2c(-c3cccc(N4CCN(C)CC4)c3)cnn2c(N)c1-c1cccc(Cl)c1` [Example 72, 6-(3-Chloro-phenyl)-5-methyl-3-[3-(4-methyl-piperazin-1-yl)-phenyl]-pyrazolo[1,5-a]pyrimidin-7-ylamine], the results for the IC50 (in experiment [1]; on human IGF-IR) were 1 to 10 µM and > 10 µM, respectively.

In the case of `Cc1nc2c(-c3ccc(N4CCN(C)CC4)cc3)cnn2c(N)c1-c1cccc(Cl)c1` [Example 73, 6-(3-Chloro-phenyl)-5-methyl-3-[4-(4-methyl-piperazin-1-yl)-phenyl]-pyrazolo[1,5-a]pyrimidin-7-ylamine], the IC50 (in experiment [1]; on human IGF-IR) was > 10 µM each time.

With `COc1cc(N2CCN(C)CC2)ccc1-c1cnn2c(N)c(-c3cccc(O)c3)cnc12` [Example 76, 3-{7-Amino-3-[2-methoxy-4-(4-methyl-piperazin-1-yl)-phenyl]-pyrazolo[1,5-a]pyrimidin-6-yl}-phenol], the IC50 in experiment [1] was in the range of 1 to 10 µM.

For `Cc1nc2c(-c3cccc(N4CCN(C)CC4)c3)cnn2c(N)c1-c1ccc(F)cc1` [Example 80, 6-(4-Fluoro-phenyl)-5-methyl-3-[3-(4-methyl-piperazin-1-yl)-phenyl]-pyrazolo[1,5-a]pyrimidin-7-ylamine], the IC50 (in experiment [1]; on human IGF-IR) was > 10 µM in each case.

Regarding `Cc1nc2c(-c3ccc(N4CCN(C)CC4)cc3)cnn2c(N)c1-c1ccc(F)c(Cl)c1` [Example 83, 6-(3-Chloro-4-fluoro-phenyl)-5-methyl-3-[4-(4-methyl-piperazin-1-yl)-phenyl]-pyrazolo[1,5-a]pyrimidin-7-ylamine], the IC50 (in experiment [1]; at human IGF-IR) was > 10 µM throughout.

Consider `COc1ccc(-c2cnn3c(N)c(-c4cccc(Cl)c4)c(C)nc23)cc1` [Example 88, 6-(3-Chloro-phenyl)-3-(4-methoxy-phenyl)-5-methyl-pyrazolo[1,5-a]pyrimidin-7-ylamine], for which the IC50 (in experiment [1]; on human IGF-IR) was > 10 µM throughout.

As to `Cc1nc2c(-c3cccc(N4CCN(CCO)CC4)c3)cnn2c(N)c1-c1cccc(Cl)c1` [Example 90, 2-(4-{3-[7-Amino-6-(3-chloro-phenyl)-5-methyl-pyrazolo[1,5-a]pyrimidin-3-yl]-phenyl}-piperazin-1-yl)-ethanol], the IC50 (in experiment [1]; on human IGF-IR) was > 10 µM each time.
